Data set [1] can be described thus: Metabolic stability assay, rat liver microsomes. It counts as in vitro ADME. As to conditions: rat liver microsomes 0.5 mg/mL, 1 µM compound, read-out: Liver microsomal stability (T½ /min) Rat. The method, then:
(§1) Metabolic stability assay: A warm incubation for metabolic stability was performed with a system of 150 µL of liver microsomes (final concentration 0.5 mg/mL) containing NADPH (final concentration 1 mM), 1 µM of the test compound and positive control midazolam or negative control atenolol, and the reaction was terminated with acetonitrile containing tinidazole at 0 min, 5 min, 10 min and 30 min, respectively. The reaction was vortexed for 10 min and centrifuged at 15000 rmp for 10 min, and 50 µL of supernatant was taken into the 96-well plate for sampling. The metabolic stability of the compound was calculated by measuring the relative reduction of the drugs.
Background: Microsomes from liver hold many membrane-bound enzymes, among them those of drug oxidation.

The target in data set [2] is T1, CYP2C8 (Homo sapiens, UniProt P10632).
T1 sequence (P10632 1-490): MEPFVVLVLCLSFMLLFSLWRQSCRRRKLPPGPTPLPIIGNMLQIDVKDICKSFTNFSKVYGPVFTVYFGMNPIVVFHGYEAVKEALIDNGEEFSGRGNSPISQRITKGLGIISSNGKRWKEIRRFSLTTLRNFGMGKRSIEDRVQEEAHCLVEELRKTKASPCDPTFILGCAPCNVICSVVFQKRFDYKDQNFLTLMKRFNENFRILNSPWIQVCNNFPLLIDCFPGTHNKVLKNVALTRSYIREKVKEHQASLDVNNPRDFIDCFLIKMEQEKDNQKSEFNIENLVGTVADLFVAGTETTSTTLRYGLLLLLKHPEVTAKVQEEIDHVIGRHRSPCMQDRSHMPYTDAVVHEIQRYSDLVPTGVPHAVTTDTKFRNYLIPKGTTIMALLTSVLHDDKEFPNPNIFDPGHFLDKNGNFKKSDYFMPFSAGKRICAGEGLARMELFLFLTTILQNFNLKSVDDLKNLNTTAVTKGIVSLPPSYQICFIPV
The experiment in a line: Direct inhibition test (DI test), CYP2C8. It counts as in vitro ADME. As to conditions: human liver microsomes.

The target in data set [3] is T2, CYP2C19 (Homo sapiens, UniProt P33261).
T2 construct: a system of 100 µL of human liver microsomes (final concentration 0.2 mg/mL); from tissue; host or cells: human liver microsomes
Nature of the data set: Direct inhibition test (DI test), CYP2C19. The settings on record: human liver microsomes. Type of data set: in vitro ADME. The method, then:
(§2) Direct inhibition test (DI test): direct inhibition warm incubation was performed with a system of 100 µL of human liver microsomes (final concentration 0.2 mg/mL) containing NADPH (final concentration 1 mM), 10 µM compound, positive inhibitor cocktail (ketoconazole 10 µM, quinidine 10 µM, sulfobenzyrazole 100 µM, α-naphthoflavone 10 µM, tranylcypromine 1000 µM), a negative control (BPS with 0.1% DMSO) and a mixed probe substrate (midazolam 10 µM, testosterone 100 µM, dextromethorphan 10 µM, diclofenac 20 µM, phenacetin100 µM, mephenytoin100 µM), and the reaction was terminated after a warm incubation for 20 min.The relative enzyme activity was calculated by measuring the relative amount of metabolites produced.

The target of data set [4] is T3, CYP3A4 (Homo sapiens, UniProt P08684).
T3 construct: a system of 100 µL of human liver microsomes (final concentration 0.2 mg/mL); from tissue; host or cells: human liver microsomes
The experiment in a line: Direct inhibition test (DI test), CYP3A4. As to conditions: human liver microsomes. Type of data set: in vitro ADME. The method, then:
as §2

The target in data set [5] is hERG potassium channels (Homo sapiens, UniProt Q12809). The experiment in a line: hERG inhibition test. Type of data set: cell-based. The settings on record: highest test concentration 40 µM. (hERG is a cardiac potassium channel; its block is linked to QT prolongation.)
A short description of data set [6]: In vivo pharmacokinetic parameter testing in mice. Also on record: species or system ICR mice. As to conditions: for AUC(0-t) / clearance / half-life: male, ICR, mouse, plasma, iv(1 mg/kg); for AUC(0-t): read-out: Below the curve and AUC0-t; for clearance: read-out: Clearance rate Cl; for half-life: read-out: Half-life T½ (converted).
Data set [7] deals with NCI-H358 (lung cancer) cells. Nature of the data set: Proliferation test method 1 (2D, MTT), NCI-H358. It counts as cell-based. The settings on record: Homo sapiens, 5-7 days, read-out: IC50 proliferation inhibitory activity against NCI-H358. The method, then:
Test method 1 (2D):NCI-H358 (lung cancer) and MiaPaca-2 cells (pancreatic cancer) cells (100 µL/well, 20,000 cells/mL) were inoculated in 96-well culture plates supplemented with 10% fetal bovine serum and 1% penicillin/streptomycin sulfate, respectively.Using 0.5% dimethyl sulfoxide as a blank control, cells were treated with a solution of the compound to be tested at a starting concentration of 10 µM, tripled diluted testing solution of the compound in eight gradients were used to treat cells, and then incubated in a 5% CO2 incubator for a certain period of time (5-7 days).At the end of incubation, 10 µL of MTT stock solution (5 mg/mL) was added to each well.The culture plates were incubated at 37° C. for 4 h and then the medium was removed.Dimethyl sulfoxide (100 µL) was added to each well and then shaken sufficiently. The absorbance of the product formazanwas measured at 570 nm on the Thermo Scientific Varioskan Flash multimode reader.IC50 values were obtained by fitting dose-response data into a three-parameter nonlinear regression model using GraphPad Prism 6.0 software.

Data set [8] has as its system phosphorylated ERK levels of NCI-H358. Nature of the data set: ERK phosphorylation (western blot), H358. It counts as cell-based. The settings on record: Homo sapiens, 3 h. The method, then:
(§3) Test method 3 (ERK phosphorylation): Miapaca-2 or H358 cells were inoculated at certain concentrations in 96-well plates and incubated overnight at 37° C., 5% CO2 in a cell culture incubator, and serial dilutions of the test compound (5 concentrations, 3-fold dilution) were added to the plates the next day for 24 h (Miapaca-2) or 3 h (H358), then lysis solution containing protease and phosphatase inhibitor were added to lyse the cells to extract proteins and western blot method was used to detect the level of p-ERK.
Background: Immunoblotting shows a protein as a band on a membrane.

Data set [9] has as its system phosphorylated ERK levels of MiaPaca-2. The experiment in a line: ERK phosphorylation (western blot), MiaPaca-2. It counts as cell-based. As to conditions: Homo sapiens, MIA PaCa-2, 24 h. The method, then:
as §3

The nature of data set [10]: Metabolic stability assay, monkey liver microsomes. Type of data set: in vitro ADME. The settings on record: monkey liver microsomes 0.5 mg/mL, 1 µM compound, read-out: Liver microsomal stability (T½ /min) monkey. The method, then:
as §1

The structures appear in SMILES notation. Some results are limits rather than exact numbers.

T2 sequence (P33261 whole entry): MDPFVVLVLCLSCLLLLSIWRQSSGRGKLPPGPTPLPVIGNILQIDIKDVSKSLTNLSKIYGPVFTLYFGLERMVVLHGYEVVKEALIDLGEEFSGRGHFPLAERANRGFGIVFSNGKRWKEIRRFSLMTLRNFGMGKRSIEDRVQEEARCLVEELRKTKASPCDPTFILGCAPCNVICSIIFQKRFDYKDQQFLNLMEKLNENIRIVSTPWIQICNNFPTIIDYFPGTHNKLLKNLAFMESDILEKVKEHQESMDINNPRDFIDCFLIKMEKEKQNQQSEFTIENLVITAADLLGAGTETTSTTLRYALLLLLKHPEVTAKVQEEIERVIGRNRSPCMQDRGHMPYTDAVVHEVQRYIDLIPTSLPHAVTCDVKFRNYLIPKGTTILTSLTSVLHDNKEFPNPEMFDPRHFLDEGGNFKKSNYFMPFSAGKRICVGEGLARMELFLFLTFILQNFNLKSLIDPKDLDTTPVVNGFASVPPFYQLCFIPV
T3 sequence (P08684 whole entry): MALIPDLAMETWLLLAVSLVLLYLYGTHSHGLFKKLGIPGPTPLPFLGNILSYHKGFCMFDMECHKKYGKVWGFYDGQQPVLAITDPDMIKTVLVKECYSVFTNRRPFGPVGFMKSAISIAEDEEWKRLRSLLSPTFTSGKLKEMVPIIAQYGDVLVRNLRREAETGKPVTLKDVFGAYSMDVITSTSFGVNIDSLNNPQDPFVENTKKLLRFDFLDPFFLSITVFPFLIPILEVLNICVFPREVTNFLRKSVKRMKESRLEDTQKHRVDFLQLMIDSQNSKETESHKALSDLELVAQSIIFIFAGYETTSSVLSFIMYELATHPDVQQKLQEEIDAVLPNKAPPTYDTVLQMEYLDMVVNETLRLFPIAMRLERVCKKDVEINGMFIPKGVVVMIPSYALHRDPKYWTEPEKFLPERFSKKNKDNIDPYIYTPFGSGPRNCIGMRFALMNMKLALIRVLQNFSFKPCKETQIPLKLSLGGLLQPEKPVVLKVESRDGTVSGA
hERG potassium channels, sequence (Q12809 whole entry): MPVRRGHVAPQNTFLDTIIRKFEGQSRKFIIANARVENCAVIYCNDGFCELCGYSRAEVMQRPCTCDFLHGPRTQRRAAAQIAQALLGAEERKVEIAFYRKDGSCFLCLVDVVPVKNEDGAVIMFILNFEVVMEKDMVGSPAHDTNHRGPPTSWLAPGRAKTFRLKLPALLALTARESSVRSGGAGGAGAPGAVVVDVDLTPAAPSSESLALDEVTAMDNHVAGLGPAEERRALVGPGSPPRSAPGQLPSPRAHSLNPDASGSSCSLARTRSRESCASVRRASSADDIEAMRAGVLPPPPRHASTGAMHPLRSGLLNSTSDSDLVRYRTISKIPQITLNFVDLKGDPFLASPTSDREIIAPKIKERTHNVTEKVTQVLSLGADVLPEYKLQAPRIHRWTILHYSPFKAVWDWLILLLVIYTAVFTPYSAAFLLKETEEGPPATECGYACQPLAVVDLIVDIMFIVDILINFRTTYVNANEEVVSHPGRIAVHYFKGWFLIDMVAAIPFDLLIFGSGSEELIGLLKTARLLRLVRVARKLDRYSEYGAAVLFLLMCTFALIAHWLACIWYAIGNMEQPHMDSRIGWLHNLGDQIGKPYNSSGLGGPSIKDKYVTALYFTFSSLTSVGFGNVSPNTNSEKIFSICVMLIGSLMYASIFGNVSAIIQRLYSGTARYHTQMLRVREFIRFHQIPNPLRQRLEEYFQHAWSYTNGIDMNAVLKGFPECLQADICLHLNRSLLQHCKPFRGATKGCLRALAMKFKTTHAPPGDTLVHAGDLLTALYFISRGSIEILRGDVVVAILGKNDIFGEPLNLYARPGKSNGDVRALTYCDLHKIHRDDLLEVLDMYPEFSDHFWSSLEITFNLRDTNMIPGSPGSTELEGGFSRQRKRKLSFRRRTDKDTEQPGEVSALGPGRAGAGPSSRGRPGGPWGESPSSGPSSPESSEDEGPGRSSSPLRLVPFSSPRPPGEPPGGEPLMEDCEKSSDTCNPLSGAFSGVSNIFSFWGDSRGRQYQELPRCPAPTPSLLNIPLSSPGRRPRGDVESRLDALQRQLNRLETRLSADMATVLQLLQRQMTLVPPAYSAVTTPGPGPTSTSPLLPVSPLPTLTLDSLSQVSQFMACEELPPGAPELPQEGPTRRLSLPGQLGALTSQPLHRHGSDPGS

As a reminder, the clearance is a measure of how efficiently the substance is removed, as volume per time. Take `C=CC(=O)N1C[C@@H]2C(=O)N(C)c3cnc4c(F)c(-c5ccc(F)c6sc(N)nc56)c(Cl)cc4c3N2C[C@H]1C` (single isomer, unassigned) [Example 17-1]: the half-life at 1 µM in [1] is over 30 min. This molecule also showed an IC50 at 20 min in data set [2] of over 10 µM. The IC50 in data set [3] was over 10 µM. The IC50 in data set [4] was over 10 µM. This molecule had an IC50 in data set [5] of over 20 µM. In data set [6] (in words), the “AUC compared to the comparative compound 1” value is on record as “significantly increased”, the “clearance rate Cl compared to the comparative compound 1” value is “significantly lower” and the “pharmacokinetic properties in mice compared to comparative compound 1” value is given as “significantly better”. Further, in data set [6], the AUC(0-t) was determined as 3.31 ± 0.187 µM·h, the clearance was found to be 9.04 ± 0.5 mL/min/kg and the half-life was 66 min.
Take `C=CC(=O)N1CCN(c2c(C#N)c(OC[C@@H]3CCCN3C)nc3c(F)c(-c4ccc(F)c5sc(N)nc45)c(Cl)cc23)CC1` [Example 3, 4-(4-Piperazinylacryloylpiperazin-1-yl)-7-(2-Amino-7-Fluorobenzo[d]Thiazol-4-yl)-6-Chloro-8-Fluoro-2-(((S)-1-Methylpyrrolidin-2-Yl)Methoxy)Quinoline-3-Cyano]: the IC50 was under 0.1 µM in data set [7]; under 0.5 µM in [8]; under 0.5 µM in [9]; over 10 µM in [3]; over 10 µM in data set [4]; over 20 µM in data set [5]. Also, the half-life at 1 µM in data set [10] is over 30 min. The IC50 at 20 min in data set [2] was over 10 µM. The “AUC compared to the comparative compound 1” value in data set [6] (in words) was “significantly increased”. The “clearance rate Cl compared to the comparative compound 1” value in data set [6] (in words) is reported as “significantly lower”. Also, in [6] (in words), the “in vivo metabolic half-life compared to the comparative compound 1” value is “significantly longer”. The “pharmacokinetic properties in mice compared to comparative compound 1” value in data set [6] (in words) was “significantly better”. Besides, in [6], the AUC(0-t) worked out at 4.09 ± 0.373 µM·h. Further, the clearance in data set [6] came to 6.35 ± 0.67 mL/min/kg. Besides, the half-life in [6] was 390 min.
In the case of `C=CC(=O)N1CCN(c2c(C#N)cnc3c(F)c(-c4ccc(F)c5sc(N)nc45)c(Cl)cc23)CC1` [Example 8], the IC50 was under 0.1 µM in data set [7]; under 0.5 µM in [8]; under 0.5 µM in [9]; over 10 µM in data set [3]; over 10 µM in data set [4]; over 20 µM in data set [5]. Besides, the half-life at 1 µM in [1] and in [10] was over 30 min throughout. Besides, the IC50 at 20 min in [2] was over 10 µM. Besides, the “AUC compared to the comparative compound 1” value in data set [6] (in words) is recorded as “significantly increased”. Besides, the “clearance rate Cl compared to the comparative compound 1” value in data set [6] (in words) was “significantly lower”. For the same molecule, the “pharmacokinetic properties in mice compared to comparative compound 1” value in [6] (in words) is reported as “significantly better”. In addition, the AUC(0-t) in data set [6] is 2.85 ± 0.363 µM·h. The clearance in data set [6] stood at 11.5 ± 1.52 mL/min/kg. Also, in data set [6], the half-life is 31.2 min.
For the molecule `C=CC(=O)N1CCN(c2nc(OC[C@@H]3CCCN3C)nc3c(F)c(-c4ccc(F)c5sc(N)nc45)c(Cl)cc23)C[C@H]1C` [Example 11, 1-((2R)-4-(7-(2-Amino-7-Fluorobenzo [d] Thiazol-4-yl) -6-Chloro-8-Fluoro-2-(((S)-1-Methylpyrrolidin-2-yl) Methoxy) Quinazolin-4-yl)-2-Methylpiperazin-1-yl) Prop-2-En-1-One], the IC50 in [7] was under 0.1 µM; in [8] it was under 0.5 µM; in data set [9], under 0.5 µM; in data set [3] it was over 10 µM; in data set [4], over 10 µM; in [5], over 20 µM. Besides, the half-life at 1 µM in data set [1] was over 30 min. The same molecule registered an IC50 at 20 min in data set [2] of over 10 µM.
As to `C=CC(=O)N1CCN(c2c(C#N)c(N3CC(N(C)C)C3)nc3c(F)c(-c4ccc(F)c5sc(N)nc45)c(Cl)cc23)CC1` [Example 21, 4-(4-acryloyl Piperazin-1-yl)-7-(2-Amino-7-Fluorobenzo [d] Thiazol-4-yl) -6-Chloro-2-(3-(Dimethylamino) Azetidine-1-yl)-8-Fluoroquinolin-3 -Cyano], the IC50 is under 0.1 µM in [7]; under 0.5 µM in data set [8]; under 0.5 µM in [9]; over 10 µM in data set [3]; over 10 µM in data set [4]; over 20 µM in data set [5]. Further, the half-life at 1 µM in data set [1] and in data set [10] was over 30 min in each case. Besides, in data set [2], the IC50 at 20 min was over 10 µM. Further, in data set [6] (in words), the “pharmacokinetic properties in mice compared to comparative compound 1” value is recorded as “significantly better”. Moreover, the AUC(0-t) in data set [6] turned out to be 1.29 ± 0.07 µM·h. Moreover, the clearance in data set [6] was found to be 21.6 ± 1.05 mL/min/kg. In addition, the half-life in data set [6] was 78 min.

These data come from patent US20230174526A1, “BENZOTHIAZOLYL BIARYL COMPOUND, AND PREPARATION METHOD AND USE” (SHANGHAI RINGENE BIOPHARMA CO., LTD., priority 2020, published 2023).
